In patent US20070134744A1, “Epothilone resistant cell lines” (priority 2000, published 2007):
Entries after “also recorded” stand apart in the source; their conditions may differ.

Tests used:
EA10 cells = assay: MTS growth inhibition assay; type: cell-based; details: MTS, 72 hours drug, Table 1
Protocol: (§1) Growth inhibition may be analyzed using conventional methods, for example a MTS assay (PROMEGA, Wis.) may be used. In this assay approximately 4000 cells per well are seeded in 96 well plates in MEM supplemented with 10% fetal calf serum and incubated at 37° C. in 5.0% CO2. After 24 hours, dilutions of drug (concentration range used is between 1 nM and 1000 nM) are added and cells are allowed to incubate with drug for an additional 72 hours. The MTS reagent mixed with PMS (MTS:PMS 20:1 according to manufacturer's instructions) is then added and absorbance quantitated using a Thermomax microplate reader system according to conventional methods (Molecular Devices, Sunnyvale, Calif.). […] Six assays per drug per plate are performed.
(§2) Thus, at least two potential mechanisms of epothilone A resistance may exist—a lower resistance mechanism that is cross-resistant to TAXOL® and a higher, epothilone A specific resistance mechanism.

EA150 cells = assay: MTS growth inhibition assay; type: cell-based; details: for IC50: MTS, 72 hours drug, Table 1
Protocol: as §1, §2

EA20 cells [1] = assay: MTS growth inhibition assay; type: cell-based; details: MTS, 72 hours drug, Table 1
Protocol: as §1, §2

EA60 cells = assay: MTS growth inhibition assay; type: cell-based; details: MTS, 72 hours drug, Table 1
Protocol: as §1, §2

MDA-MB-435 cells = assay: MTS growth inhibition assay; type: cell-based
Protocol: as §1, §2

EA40 cells = assay: MTS growth inhibition assay; type: cell-based; details: for IC50: EA40 cells
Protocol: as §1, with “performed. […]” for “performed.”
(§3) As such, epothilone resistant cells would have some degree of cross-resistance to other P-gp substrates that could be reversed by P-gp inhibitors. To investigate this possibility, the cytotoxicity of the P-gp substrates, vincristine, doxorubicine and vinblastine is determined against epothilone A resistant cells using the MTS assay. […] When EA20 and resistant MDA/T0.3 cells are incubated with TAXOL® or epothilone A in the presence of [3′-Desoxy-3′-oxo-MeBmt]^1-[Val]^2-Ciclosporin (PSC-833; a P-gp inhibitor which is disclosed in U.S. Pat. No. 5,525,590), the resistance of MDA/T0.3 cells to TAXOL® is reversed but no effect on the resistance of EA20 to epothilone A is observed.

KB-8511 cells [2] = type: cell-based, human; details: for RF (resistance factor: IC50 resistant cell line / IC50 parental KB-31): KB-8511 (Colch selected), 72 hrs, average of three experiments; for resistance profile in words: KB-8511 vs parental KB-31
Protocol: (§4) Data in Table 4 are gathered according to the following methods: Cells (1×10^3) are seeded in 96-well plates and allowed to adhere for 24 hrs. Compounds are then added as two-fold serial dilutions and incubation continued for an additional 72 hrs. Cell numbers at the beginning and at the end of the experiment are estimated by methylene blue staining of cellular protein mass according to conventional methods. The net mass increase of vehicle-treated cells is set as 100% growth. The IC50 is determined as the drug concentration that leads to half-maximal growth inhibition compared to the control. The resistance factor (RF) for a particular drug is calculated by dividing the IC50 determined on the resistant cell line by that determined on the parental KB-31 cells. Data are presented as average±standard deviation (SD) of three separate experiments, except na=not applicable (n<3). Colchicine-selected KB-8511 cells overexpressing P-glycoprotein served as a reference for the classical multi-drug-resistant phenotype.

297/C5/0 cells = type: cell-based, human; details: for RF (resistance factor: IC50 resistant cell line / IC50 parental KB-31): 297/C5/0 (EpoA selected), 72 hrs, average of three experiments; for resistance profile in words: 297/C5/0 vs parental KB-31
Protocol: (§5) Anti-proliferative assays are performed basically as described (Meyer et al., Int. J. Cancer 43:851 (1989)). Briefly, cells are seeded at 1.5×10^3 cells/well into 96-well microtiter plates and allowed to adhere by incubation overnight. Compounds are added in serial dilutions on day 1. The plates are then incubated for an additional 3 days, after which the cells are fixed with 3.3% v/v glutaraldehyde, washed with water and stained with 0.05% w/v methylene blue according to conventional methods. After washing, the dye is eluted with 3% HCl and the optical density measured at 665 nm with a SpectraMax Plus (Molecular Devices, Sunnyvale, Calif.) according to manufacturers instructions. IC50 values are determined by mathematical curve-fitting using the SoftPro2.6.1 program (Molecular Devices, Sunnyvale, Calif.) using the formula (OD treated−OD start)/(OD control−OD start)×100. […] IC50 determinations with the cell line 298/D4/40 are performed in the presence of 40 nM epothilone A.
as §4

298/D4/40 cells [3] = type: cell-based, human; details: for RF (resistance factor: IC50 resistant cell line / IC50 parental KB-31): 298/D4/40 (EpoA selected), 72 hrs, in the presence of 40 nM epothilone A; for resistance profile in words: 298/D4/40 vs parental KB-31
Protocol: as §5, §4

315/sc5.9 cells = type: cell-based, human; details: for RF (resistance factor: IC50 resistant cell line / IC50 parental KB-31): 315/sc5.9 (EpoB selected), 72 hrs, average of three experiments
Protocol: as §5, §4

298/D4/40 cells [4] = assay: Support of growth of epothilone A-dependent cells; type: cell-based, human; details: replacing epothilone A
Protocol: The epothilone resistant cell lines, EpoA320-80C, EpoA320/ND, 298/D4/40, 297/C5/0 and 315/sc5.9 are generated as disclosed above. […] A subclone, 298/D4/40, is adapted to grow in the presence of 40 nM epothilone A administered twice weekly (i.e. at every medium change). […] Furthermore, when 298/D4/40 cells are deprived of epothilone A, they growth arrest in the G2/M phase of the cell cycle and eventually die by apoptosis. […] Thus, this cell line could be employed in a drug screen, in which compounds with a potential microtubule-stabilizing mechanism could be identified by virtue of supporting the growth of epothilone A-deprived 298/D4/40 cells (see below). Nevertheless, upon prolonged incubation in the absence of epothilone A, we are able to isolate a subline that is still partially resistant to epothilone A, but has lost the drug-dependent phenotype of 298/D4/40, likely due to a cornpensating mutation. A subclone of this cell line, 297/C5/0, is used for further analyses.
Potential hits would be those that support the growth of 298/D4/40 cells similar to epothilone A (or paclitaxel) that could be included as a positive control in this assay.

EA20 cells [5] = assay: Reversal of resistance by P-gp inhibitor (MTS assay); type: cell-based; details: EA20 cells incubated with epothilone A in the presence of PSC-833
Protocol: as §1
(§6) As such, epothilone resistant cells would have some degree of cross-resistance to other P-gp substrates that could be reversed by P-gp inhibitors. To investigate this possibility, the cytotoxicity of the P-gp substrates, vincristine, doxorubicine and vinblastine is determined against epothilone A resistant cells using the MTS assay. […]

MDA/T0.3 cells [6] = assay: as above; type: cell-based; details: MDA/T0.3 cells incubated with TAXOL in the presence of PSC-833
Protocol: as §1, §6

MDA/T0.3 cells [7] = assay: MTS growth inhibition assay; type: cell-based; details: MDA/T0.3 cells, P-gp substrates; Table 2; read-out: IC50
Protocol: as §1, with “After 24 hours, dilutions of drug (concentration range used is between 1 nM and 1000 nM) are added and cells are allowed to incubate with drug for an additional 72 hours.” left out
as §3
MDA/T0.3 is a clonal subline of MDA-MB-435 cells selected by increasing exposure of MDA-MB-435 cells to TAXOL®. MDA/T0.3 cells express high levels of P-glycoprotein and are resistant to a variety of chemically and functionally unrelated compounds. MDA/T0.3 cells could be sensitized to a variety of cytotoxic agents by treatment with the P-glycoprotein reversing agent PSC-833.

KB-8511 cells [8] = details: cited from earlier work

## C/C(=C\c1csc(C)n1)[C@@H]1C[C@@H]2O[C@]2(C)CCC[C@H](C)[C@H](O)[C@@H](C)C(=O)C(C)(C)[C@@H](O)CC(=O)O1 [Epothilone B, epothilone B]
EA10 cells
  IC50: 3 ± 1.4 nM
EA150 cells
  resistance profile in words: very little resistance
  IC50: 15 ± 3.1 nM
EA20 cells [1]
  IC50: 6 ± 2.9 nM
EA60 cells
  IC50: 10 ± 4.2 nM
MDA-MB-435 cells; MTS, 72 hours drug, Table 1
  IC50: 2 ± 0.8 nM
EA40 cells; MTS, 72 hours drug, Table 1
  IC50: 8 ± 3.5 nM
KB-8511 cells [2]
  RF (resistance factor: IC50 resistant cell line / IC50 parental KB-31): 0.9
  resistance profile in words: retain full activity
297/C5/0 cells
  RF (resistance factor: IC50 resistant cell line / IC50 parental KB-31): 7.7
  resistance profile in words: either partially or fully cross-resistant
298/D4/40 cells [3]
  RF (resistance factor: IC50 resistant cell line / IC50 parental KB-31): 9.2
  resistance profile in words: either partially or fully cross-resistant
315/sc5.9 cells
  RF (resistance factor: IC50 resistant cell line / IC50 parental KB-31): 3.1
315/sc5.9 cells; 315/sc5.9 vs parental KB-31
  resistance: 3.1 fold
298/D4/40 cells [4]
  support of growth of epothilone A-dependent cell line: able to substitute for epothilone A

## C/C=C/C[C@@H](C)C(=O)[C@H]1C(=O)N[C@@H](C(C)C)C(=O)N(C)CC(=O)N(C)[C@@H](CC(C)C)C(=O)N[C@@H](C(C)C)C(=O)N(C)[C@@H](CC(C)C)C(=O)N[C@@H](C)C(=O)N[C@H](C)C(=O)N(C)[C@@H](CC(C)C)C(=O)N(C)[C@@H](CC(C)C)C(=O)N(C)[C@@H](C(C)C)C(=O)N1C [PSC-833, [3′-Desoxy-3′-oxo-MeBmt]^1-[Val]^2-Ciclosporin]
EA20 cells [5]
  effect on resistance to epothilone A: no effect
MDA/T0.3 cells [6]
  effect on resistance to TAXOL: reversed

## CC(=O)O[C@H]1C(=O)[C@@]2(C)[C@H]([C@H](OC(=O)c3ccccc3)[C@]3(O)C[C@H](OC(=O)[C@H](O)[C@@H](NC(=O)c4ccccc4)c4ccccc4)C(C)=C1C3(C)C)[C@]1(OC(C)=O)CO[C@@H]1C[C@@H]2O [Paclitaxel, paclitaxel]
EA10 cells
  IC50: 13 ± 3.1 nM
EA150 cells
  IC50: 34 ± 2.6 nM
EA20 cells [1]
  IC50: 22 ± 4 nM
EA60 cells
  IC50: 27 ± 3.1 nM
MDA-MB-435 cells; Homo sapiens, MTS, 72 hours drug, Table 1
  IC50: 7.5 ± 3 nM
MDA-MB-435 cells; Homo sapiens, P-gp substrates, Table 2
  IC50: 7.5 ± 3 nM
EA40 cells; MTS, 72 hours drug, Table 1
  IC50: 23 ± 4 nM
EA40 cells; P-gp substrates, Table 2
  IC50: 21 ± 3 nM
EA40 cells; EA40 vs MDA-MB-435 / EA150
  resistance profile in words: equally resistant
MDA/T0.3 cells [7]
  IC50: 540 ± 100 nM
KB-8511 cells [2]
  RF (resistance factor: IC50 resistant cell line / IC50 parental KB-31): 209.6
  resistance profile in words: resistant
297/C5/0 cells
  RF (resistance factor: IC50 resistant cell line / IC50 parental KB-31): 98.3
  resistance profile in words: either partially or fully cross-resistant; also recorded: full cross-resistance
298/D4/40 cells [3]
  RF (resistance factor: IC50 resistant cell line / IC50 parental KB-31): 200.1
  resistance profile in words: either partially or fully cross-resistant; also recorded: full cross-resistance
315/sc5.9 cells
  RF (resistance factor: IC50 resistant cell line / IC50 parental KB-31): 1.4
315/sc5.9 cells; 315/sc5.9 vs parental KB-31
  resistance profile in words: marginal cross-resistance
298/D4/40 cells [4]
  support of growth of epothilone A-dependent cell line: able to substitute for epothilone A

## COc1cc2c(c(OC)c1OC)-c1ccc(OC)c(=O)cc1[C@@H](NC(C)=O)CC2 [colchicine]
KB-8511 cells [8]
  relative resistance compared to KB-31 cells: ~40 fold
